# Measured values as given in patent US12655116B2, “Substituted isophthalic acid diamides” (Bayer Aktiengesellschaft, priority 2020, dated 2026).
# Assays:
# ABUTH [1] = assay: Pre-emergence herbicidal action against ABUTH; type: in vivo, Abutilon theophrasti; settings: Abutilon theophrasti, 504 h
# Procedure, shortened: (§1)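 Pre-emergence soil-surface spray of formulated compound (WP or EC; 600 to 800 l/ha; 0.2% wetting agent) over seeds sown in sandy loam. After 3 weeks under greenhouse conditions, damage is estimated visually in percent against untreated plants.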
# ALOMY [2] = assay: Pre-emergence herbicidal action against ALOMY; type: in vivo, Alopecurus myosuroides; settings: Alopecurus myosuroides, 504 h, pre-emergence
# Procedure, shortened: as §1
# AMARE [3] = assay: Pre-emergence herbicidal action against AMARE; type: in vivo, Amaranthus retroflexus; settings: Amaranthus retroflexus, 504 h, scored visually after 3 weeks vs untreated controls, 100% = plants have died, 0% = like control plants
# Procedure, shortened: as §1
# AVEFA [4] = assay: Pre-emergence herbicidal action against AVEFA; type: in vivo, Avena fatua; settings: Avena fatua, 504 h, pre-emergence
# Procedure, shortened: as §1
# ECHCG [5] = assay: Pre-emergence herbicidal action against ECHCG; type: in vivo, Echinochloa crus-galli; settings: Echinochloa crus-galli, 504 h, 80 g/ha
# Procedure, shortened: as §1
# HORMU [6] = assay: Pre-emergence herbicidal action against HORMU; type: in vivo, Hordeum murinum; settings: Hordeum murinum, 504 h; 80 g/ha, pre-emergence
# Procedure, shortened: as §1
# LOLRI = assay: Pre-emergence herbicidal action against LOLRI; type: in vivo, Lolium rigidum; settings: Lolium rigidum, 504 h, 80 g/ha
# Procedure, shortened: as §1
# MATIN [7] = assay: Pre-emergence herbicidal action against MATIN; type: in vivo, Matricaria inodora; settings: Tripleurospermum inodorum, 504 h
# Procedure, shortened: as §1
# POLCO = assay: Pre-emergence herbicidal action against POLCO; type: in vivo, Polygonum convolvulus; settings: Fallopia convolvulus, 504 h, dosage 80 g/ha
# Procedure, shortened: as §1
# SETVI [8] = assay: Pre-emergence herbicidal action against SETVI; type: in vivo, Setaria viridis; settings: Setaria viridis, 504 h
# Procedure, shortened: as §1
# STEME [9] = assay: Pre-emergence herbicidal action against STEME; type: in vivo, Stellaria media; settings: Stellaria media, 504 h
# Procedure, shortened: as §1
# VIOTR [10] = assay: Pre-emergence herbicidal action against VIOTR; type: in vivo, Viola tricolor; settings: Viola tricolor, 504 h
# Procedure, shortened: as §1
# DIGSA [11] = assay: Pre-emergence herbicidal action against DIGSA; type: in vivo, Digitaria sanguinalis; settings: Digitaria sanguinalis, 504 h
# Procedure, shortened: as §1
# ABUTH [12] = assay: Post-emergence herbicidal action against ABUTH; type: in vivo, Abutilon theophrasti; settings: Abutilon theophrasti, 504 h, visual assessment about 3 weeks after treatment vs untreated controls
# Procedure, shortened: (§2)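 Greenhouse plants in sandy loam were sprayed at the one-leaf stage, 2 to 3 weeks after sowing, with WP or EC formulations as aqueous suspension or emulsion (600 to 800 l/ha water, 0.2% wetting agent). Visual damage was scored about 3 weeks later versus untreated controls, 0% = like control, 100% = dead.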
# ALOMY [13] = assay: Post-emergence herbicidal action against ALOMY; type: in vivo, Alopecurus myosuroides; settings: Alopecurus myosuroides, 504 h, dosage 20 g/ha, visual assessment about 3 weeks after treatment vs untreated controls
# Procedure, shortened: as §2
# AMARE [14] = assay: Post-emergence herbicidal action against AMARE; type: in vivo, Amaranthus retroflexus; settings: Amaranthus retroflexus, 504 h, 20 g/ha, visual assessment about 3 weeks after treatment, 100% = plants have died, 0% = like control plants
# Procedure, shortened: as §2
# AVEFA [15] = assay: Post-emergence herbicidal action against AVEFA; type: in vivo, Avena fatua; settings: Avena fatua, 504 h, 20 g/ha, visual assessment about 3 weeks after treatment, 100% = plants have died, 0% = like control plants
# Procedure, shortened: as §2
# ECHCG [16] = assay: Post-emergence herbicidal action against ECHCG; type: in vivo, Echinochloa crus-galli; settings: Echinochloa crus-galli, 504 h, dosage 20 g/ha
# Procedure, shortened: as §2
# HORMU [17] = assay: Post-emergence herbicidal action against HORMU; type: in vivo, Hordeum murinum; settings: Hordeum murinum, 504 h, dosage 20 g/ha
# Procedure, shortened: as §2
# MATIN [18] = assay: Post-emergence herbicidal action against MATIN; type: in vivo, Matricaria inodora; settings: Tripleurospermum inodorum, 504 h
# Procedure, shortened: as §2
# PHBPU = assay: Post-emergence herbicidal action against PHBPU; type: in vivo, Pharbitis purpurea; settings: Ipomoea purpurea, 504 h, dosage 20 g/ha
# Procedure, shortened: as §2
# SETVI [19] = assay: Post-emergence herbicidal action against SETVI; type: in vivo, Setaria viridis; settings: Setaria viridis, 504 h, dosage 20 g/ha
# Procedure, shortened: as §2
# STEME [20] = assay: Post-emergence herbicidal action against STEME; type: in vivo, Stellaria media; settings: Stellaria media, 504 h
# Procedure, shortened: as §2
# VERPE = assay: Post-emergence herbicidal action against VERPE; type: in vivo, Veronica persica; settings: Veronica persica, 504 h, 20 g/ha
# Procedure, shortened: as §2
# VIOTR [21] = assay: Post-emergence herbicidal action against VIOTR; type: in vivo, Viola tricolor; settings: Viola tricolor, 504 h
# Procedure, shortened: as §2
# DIGSA [22] = assay: Post-emergence herbicidal action against DIGSA; type: in vivo, Digitaria sanguinalis; settings: Digitaria sanguinalis, 504 h
# Procedure, shortened: as §2
# [23] = 80 g/ha, scored visually after 3 weeks vs untreated controls (100% = plants have died, 0% = like control plants)
# [24] = 20 g/ha, scored visually after 3 weeks, 100% = plants have died, 0% = like control plants
smiles,measurement,setting,value
Cn1nnnc1NC(=O)c1ccc(C(F)(F)F)c(C(=O)NC2CC2)c1Cl [Example 1-131],pest or weed control at 80 g/ha,ABUTH [1]; [23],100%
same,pest or weed control at 20 g/ha,"ABUTH [1]; dosage 20 g/ha, scored visually after 3 weeks vs untreated controls, 100% = plants have died, 0% = like control plants, read-out: Pre-emergence action against ABUTH (herbicidal activity in percent)",100%
same,pest or weed control at 80 g/ha,ALOMY [2]; [23],100%
same,pest or weed control at 20 g/ha,ALOMY [2]; [24],80%
same,pest or weed control at 20 g/ha,AMARE [3]; 20 g/ha,100%
same,pest or weed control at 80 g/ha,AMARE [3]; 80 g/ha,100%
same,pest or weed control at 80 g/ha,AVEFA [4]; 80 g/ha,100%
same,pest or weed control at 20 g/ha,AVEFA [4]; [24],80%
same,pest or weed control at 80 g/ha,ECHCG [5],100%
same,pest or weed control at 80 g/ha,HORMU [6],80%
same,pest or weed control at 80 g/ha,LOLRI,80%
same,pest or weed control at 20 g/ha,MATIN [7]; dosage 20 g/ha,100%
same,pest or weed control at 80 g/ha,MATIN [7]; dosage 80 g/ha,100%
same,pest or weed control at 80 g/ha,POLCO,80%
same,pest or weed control at 20 g/ha,SETVI [8]; dosage 20 g/ha,80%
same,pest or weed control at 80 g/ha,SETVI [8]; dosage 80 g/ha,100%
same,pest or weed control at 20 g/ha,STEME [9]; dosage 20 g/ha,100%
same,pest or weed control at 80 g/ha,STEME [9]; dosage 80 g/ha,100%
same,pest or weed control at 20 g/ha,VIOTR [10]; dosage 20 g/ha,100%
same,pest or weed control at 80 g/ha,VIOTR [10]; dosage 80 g/ha,100%
same,pest or weed control at 20 g/ha,DIGSA [11]; dosage 20 g/ha,100%
same,pest or weed control at 80 g/ha,DIGSA [11]; dosage 80 g/ha,100%
same,pest or weed control at 5 g/ha,ABUTH [12]; dosage 5 g/ha,90%
same,pest or weed control at 20 g/ha,ABUTH [12]; dosage 20 g/ha,90%
same,pest or weed control at 20 g/ha,ALOMY [13],90%
same,pest or weed control at 20 g/ha,AMARE [14],100%
same,pest or weed control at 20 g/ha,AVEFA [15],80%
same,pest or weed control at 20 g/ha,ECHCG [16],90%
same,pest or weed control at 20 g/ha,HORMU [17],80%
same,pest or weed control at 5 g/ha,MATIN [18]; dosage 5 g/ha,90%
same,pest or weed control at 20 g/ha,MATIN [18]; dosage 20 g/ha,90%
same,pest or weed control at 20 g/ha,PHBPU,90%
same,pest or weed control at 20 g/ha,SETVI [19],100%
same,pest or weed control at 20 g/ha,STEME [20]; 20 g/ha,100%
same,pest or weed control at 5 g/ha,STEME [20]; dosage 5 g/ha,80%
same,pest or weed control at 20 g/ha,VERPE,90%
same,pest or weed control at 5 g/ha,VIOTR [21]; 5 g/ha,100%
same,pest or weed control at 20 g/ha,VIOTR [21]; 20 g/ha,100%
same,pest or weed control at 5 g/ha,DIGSA [22]; 5 g/ha,100%
same,pest or weed control at 20 g/ha,DIGSA [22]; 20 g/ha,100%
